Laboratory results reported in patent US4231928A, “Antibacterial agents” (priority 1979, dated 1980).
Converted amounts (≈) assume the structure as drawn. Read-outs that look alike come from different tables or passages of the source.

Experiments:
S. enteritidis = assay: Tube dilution (Nutrient broth), S. enteritidis; format: cell-based; settings: Salmonella enterica, Se-1 S. enteritidis A9531, Table 3
Description: (§1) The MIC's of BB-P598 against various organisms were also determined by the tube dilution method (Nutrient broth), and the results, compared with sulbenicillin, are shown in Table 3.

P. mirabilis = assay: Tube dilution (Nutrient broth), P. mirabilis; format: cell-based; settings: Proteus mirabilis, Pm-2 P. mirabilis A9900, Table 3
Description: as §1

S. marcescens = assay: Tube dilution (Nutrient broth), S. marcescens; format: cell-based; settings: Serratia marcescens
Description: as §1

E. cloacae = assay: Tube dilution (Nutrient broth), E. cloacae; format: cell-based; settings: Enterobacter cloacae, El-1 E. cloacae A9656, Table 3
Description: as §1

P. morganii = assay: Tube dilution (Nutrient broth), P. morganii; format: cell-based; settings: Morganella morganii
Description: as §1

E. coli Juhl [1] = assay: MIC of the infecting strain with the in vivo test, E. coli Juhl; format: cell-based; settings: Escherichia coli, Table 7
P. aeruginosa A9843 [2] = assay: In vivo activity in experimental infection in mice, P. aeruginosa A9843; settings: single; for Survival/Tested: 100×LD50 challenge; for ED50: Pseudomonas aeruginosa, A9843, sc, dose required to protect 50% of the infected mice, read-out: PD50
Description: (§2) BB-P598 was evaluated in vivo in experimental infections in mice. The pathogenic bacteria employed were P. aeruginosa A9843, E. coli Juhl and S. aureus Smith. Mice were challenged intraperitoneally with a 100×LD50 dose of the pathogens in a 5% suspension of hog gastric mucin. The penicillin was administered subcutaneously as a single treatment, just after the bacterial challenge.
(§3) PD50 = Protective Dose50 , i.e. the dose required to give
(§4) protection to 50% of the infected mice.

S. aureus Smith [3] = assay: In vivo activity in experimental infection in mice, S. aureus Smith; settings: single; for Survival/Tested: 100×LD50 challenge; for ED50: Staphylococcus aureus, sc, dose required to protect 50% of the infected mice, read-out: PD50
Description: as §2, §3, §4

S. aureus = assay: Tube dilution (Nutrient broth), S. aureus; format: cell-based; settings: Staphylococcus aureus
Description: as §1

E. coli = assay: Tube dilution (Nutrient broth), E. coli; format: cell-based; settings: Escherichia coli
Description: as §1

K. pneumoniae = assay: Tube dilution (Nutrient broth), K. pneumoniae; format: cell-based; settings: Klebsiella pneumoniae
P. aeruginosa A9843 [4] = assay: Effect of inoculum size on MBC and MBC/MIC ratio; format: cell-based; settings: Table 5; for MBC: Pseudomonas aeruginosa, 99% killed
Description: (§5) The effect of inoculum size of the MIC and MBC (Minimum Bacteriacidal Concentration) of BB-P598 against P. aeruginosa A9843 also was determined. The MIC's were determined by the serial tube dilution method in Nutrient Broth using four levels of inoculum size (5.3×10^3, 5.3×10^4, 5.3×10^5 and 5.3×10^6 cells/ml), along with sulbenicillin as a reference standard.
Subsequent to the above MIC determinations, aliquots from the non-turbid tubes were added to Nutrient Agar plates to determine the MBC value. The MBC was assigned to the lowest concentration which killed 99% of the original cell population.

Pseudomonas = assay: Agar dilution, activity against Pseudomonas strains; format: cell-based
Description: (§6) The Minimum Inhibitory Concentrations (MIC) for sodium 6-[D-(-)-α-phenyl-α-(7-hydroxy-4-oxo-4H-pyrimido[1,2-b]pyridazin-3-ylcarboxamido)acetamido]penicillanate (BB-P598) and sulbenicillin were determined by the serial twofold agar dilution method using Steers' apparatus on Mueller-Hinton agar plates against 31 test organisms for the primary screening (Table 1) and also against 61 strains of Pseudomonas aeruginosa for the secondary evaluation (Table 2).

[5] = system: S. aureus and the Gram-negative organisms except Pseudomonas; assay: Agar dilution, activity against S. aureus and Gram-negative organisms except Pseudomonas; format: cell-based; settings: most of the 6 strains of S. aureus and 19 Gram-negative strains except Pseudomonas
Description: as §6

E. coli Juhl [6] = assay: In vivo activity in experimental infection in mice, E. coli Juhl; settings: single; for Survival/Tested: 100×LD50 challenge; for ED50: Escherichia coli, sc, dose required to protect 50% of the infected mice, read-out: PD50
Description: as §2, §3, §4

P. aeruginosa A9843 [7] = assay: MIC of the infecting strain with the in vivo test, P. aeruginosa A9843; format: cell-based; settings: Pseudomonas aeruginosa, Table 7
D. pneumoniae = assay: Tube dilution (Nutrient broth), D. pneumoniae; format: cell-based; settings: Streptococcus pneumoniae, Dp-4 D. pneumoniae A9585, Table 3
Description: as §1

P. aeruginosa A9843 [8] = assay: Effect of inoculum size on MIC, serial tube dilution (Nutrient Broth); format: cell-based; settings: for MIC ratio b/a: inoculum 5.3 × 10^5 / 5.3 × 10^4 cell/ml; for MIC ratio c/a: inoculum 5.3 × 10^6 / 5.3 × 10^4 cell/ml
Description: as §5

S. aureus Smith [9] = assay: MIC of the infecting strain with the in vivo test, S. aureus Smith; format: cell-based; settings: Staphylococcus aureus, Table 7, read-out: MC
P. aeruginosa = assay: Tube dilution (Nutrient broth), P. aeruginosa; format: cell-based; settings: Pseudomonas aeruginosa
Description: as §1

S. pyogenes = assay: Tube dilution (Nutrient broth), S. pyogenes; format: cell-based; settings: Streptococcus pyogenes, Sp-3 S. pyogenes A9604, Table 3
Description: as §1

Pseudomonas aeruginosa = settings: prior art penicillins; cited from earlier work
[10] = Sa-2 S. aureus Smith +50% serum, Table 3
[11] = Sa-11 S. aureus BX-1633 A9606, Table 3
[12] = Sa-44 S. aureus A15097, Table 3
[13] = Kp-3 K. pneumoniae A9977, Table 3
[14] = Kp-4 K. pneumoniae A15130, Table 3
[15] = A9843, inoculum 5.3 × 10^3 cell/ml
[16] = A9843, inoculum 5.3 × 10^4 cell/ml
[17] = Pseudomonas aeruginosa, A9843, inoculum 5.3 × 10^4 cell/ml, Nutrient Broth, Table 4, read-out: MIC (a)
[18] = Pseudomonas aeruginosa, A9843, inoculum 5.3 × 10^4 cell/ml, Table 5, read-out: MIC
[19] = Pseudomonas aeruginosa, A9843, inoculum 5.3 × 10^6 cell/ml, Nutrient Broth, Table 4, read-out: MIC (c)
[20] = Pa-13 P. aeruginosa A9843, Table 3
[21] = Pa-19 P. aeruginosa A20229, Table 3
[22] = Pa-57 P. aeruginosa A20546, Table 3

CC1(C)S[C@@H]2[C@H](NC(=O)[C@H](NC(=O)c3cnc4ccc(O)nn4c3=O)c3ccccc3)C(=O)N2[C@H]1C(=O)O [BB-P598, sodium 6-[D-(-)-α-phenyl-α-(7-hydroxy-4-oxo-4H-pyrimido[1,2-b]pyridazin-3-ylcarboxamido)acetamido]penicillanate]
MIC (S. enteritidis): 3.1 µg/mL
MIC (P. mirabilis): 6.3 µg/mL
MIC (S. marcescens; Sm-1 S. marcescens A20019, Nutrient broth, Table 3, read-out: MIC): 50 µg/mL
MIC (E. cloacae): 100 µg/mL
MIC (P. morganii; Pg-8 P. morganii A15153, Nutrient broth, Table 3, read-out: MIC): > 100 µg/mL
MIC (E. coli Juhl [1]): 25 µg/mL
Survival/Tested (P. aeruginosa A9843 [2]; 1.6 mg/kg sc): 0/5
Survival/Tested (P. aeruginosa A9843 [2]; 6.3 mg/kg sc): 1/5
Survival/Tested (P. aeruginosa A9843 [2]; 25 mg/kg sc): 1/5
Survival/Tested (P. aeruginosa A9843 [2]; 100 mg/kg sc): 3/5
ED50 (P. aeruginosa A9843 [2]): 54 mg/kg
Survival/Tested (S. aureus Smith [3]; 1.6 mg/kg sc): 0/5
Survival/Tested (S. aureus Smith [3]; 6.3 mg/kg sc): 5/5
Survival/Tested (S. aureus Smith [3]; 25 mg/kg sc): 5/5
Survival/Tested (S. aureus Smith [3]; 100 mg/kg sc): 5/5
ED50 (S. aureus Smith [3]): 3.1 mg/kg
MIC (S. aureus; [10]): 1.6 µg/mL
MIC (S. aureus; [11]): 50 µg/mL
MIC (S. aureus; [12]): 100 µg/mL
MIC (E. coli; Ec-1 E. coli NIHJ, Table 3): 6.3 µg/mL
MIC (E. coli; Ec-58 E. coli A9675, Table 3): 50 µg/mL
MIC (K. pneumoniae; [13]): 12.5 µg/mL
MIC (K. pneumoniae; [14]): > 100 µg/mL
MBC (P. aeruginosa A9843 [4]; [15]): 50 µg/mL
MBC (P. aeruginosa A9843 [4]; [16]): > 100 µg/mL
MBC/MIC (P. aeruginosa A9843 [4]; inoculum 5.3 × 10^3 cell/ml): 8
MBC/MIC (P. aeruginosa A9843 [4]; inoculum 5.3 × 10^4 cell/ml): > 8
mean % relative activity to sulbenicillin (Pseudomonas; 6 strains of Pseudomonas in Table 1): 713%
activity relative to sulbenicillin (in words) (Pseudomonas; Pseudomonas): significantly more active than sulbenicillin
activity relative to sulbenicillin (in words) [5]: equal to or less active than sulbenicillin
Survival/Tested (E. coli Juhl [6]; 1.6 mg/kg sc): 0/5
Survival/Tested (E. coli Juhl [6]; 6.3 mg/kg sc): 1/5
Survival/Tested (E. coli Juhl [6]; 25 mg/kg sc): 2/5
Survival/Tested (E. coli Juhl [6]; 100 mg/kg sc): 3/5
ED50 (E. coli Juhl [6]): 40 mg/kg
MIC (P. aeruginosa A9843 [7]): 6.3 µg/mL
MIC (D. pneumoniae): 0.01 µg/mL
MIC (P. aeruginosa A9843 [8]; Pseudomonas aeruginosa, A9843, inoculum 5.3 × 10^3 cell/ml, Nutrient Broth, Table 4, read-out: MIC): 6.3 µg/mL
MIC (P. aeruginosa A9843 [8]; Pseudomonas aeruginosa, A9843, inoculum 5.3 × 10^3 cell/ml, Table 5, read-out: MIC): 6.3 µg/mL
MIC (P. aeruginosa A9843 [8]; [17]): 12.5 µg/mL
MIC (P. aeruginosa A9843 [8]; [18]): 12.5 µg/mL
MIC (P. aeruginosa A9843 [8]; Pseudomonas aeruginosa, A9843, inoculum 5.3 × 10^5 cell/ml, Nutrient Broth, Table 4, read-out: MIC (b)): ≤ 25 µg/mL
MIC (P. aeruginosa A9843 [8]; [19]): > 100 µg/mL
MIC ratio b/a (P. aeruginosa A9843 [8]; Table 4): 2
MIC ratio c/a (P. aeruginosa A9843 [8]; Table 4): > 8
MIC (S. aureus Smith [9]): 3.1 µg/mL
MIC (P. aeruginosa; [20]): 6.3 µg/mL
MIC (P. aeruginosa; [21]): 6.3 µg/mL
MIC (P. aeruginosa; [22]): 3.1 µg/mL
MIC (S. pyogenes): 0.08 µg/mL

CC1(C)S[C@@H]2[C@H](NC(=O)C(c3ccccc3)S(=O)(=O)O)C(=O)N2[C@H]1C(=O)O (some centres unmarked) [Sulbenicillin, reference compound]
MIC (S. enteritidis): 1.6 µg/mL (≈ 3.86 µM)
MIC (P. mirabilis): 0.8 µg/mL (≈ 1.93 µM)
MIC (S. marcescens): 25 µg/mL (≈ 60.3 µM)
MIC (E. cloacae): 50 µg/mL (≈ 121 µM)
MIC (P. morganii): 12.5 µg/mL (≈ 30.2 µM)
MIC (E. coli Juhl [1]): 25 µg/mL
Survival/Tested (P. aeruginosa A9843 [2]; 1.6 mg/kg sc): 0/5
Survival/Tested (P. aeruginosa A9843 [2]; 6.3 mg/kg sc): 0/5
Survival/Tested (P. aeruginosa A9843 [2]; 25 mg/kg sc): 0/5
Survival/Tested (P. aeruginosa A9843 [2]; 100 mg/kg sc): 2/5
Survival/Tested (P. aeruginosa A9843 [2]; 400 mg/kg sc): 4/5
ED50 (P. aeruginosa A9843 [2]): 140 mg/kg
Survival/Tested (S. aureus Smith [3]; 0.4 mg/kg sc): 0/5
Survival/Tested (S. aureus Smith [3]; 1.6 mg/kg sc): 0/5
Survival/Tested (S. aureus Smith [3]; 6.3 mg/kg sc): 5/5
Survival/Tested (S. aureus Smith [3]; 25 mg/kg sc): 5/5
ED50 (S. aureus Smith [3]): 3.1 mg/kg
MIC (S. aureus; [10]): 3.1 µg/mL (≈ 7.48 µM)
MIC (S. aureus; Sa-2 S. aureus Smith A9537, Table 3): 3.1 µg/mL (≈ 7.48 µM)
MIC (S. aureus; [11]): 12.5 µg/mL (≈ 30.2 µM)
MIC (S. aureus; [12]): 25 µg/mL (≈ 60.3 µM)
MIC (E. coli; Ec-1 E. coli NIHJ, Table 3): 6.3 µg/mL (≈ 15.2 µM)
MIC (E. coli; Ec-58 E. coli A9675, Table 3): 100 µg/mL (≈ 241 µM)
MIC (K. pneumoniae; [13]): 6.3 µg/mL (≈ 15.2 µM)
MIC (K. pneumoniae; [14]): > 100 µg/mL
MBC (P. aeruginosa A9843 [4]; [15]): 100 µg/mL
MBC (P. aeruginosa A9843 [4]; [16]): 200 µg/mL
MBC/MIC (P. aeruginosa A9843 [4]; inoculum 5.3 × 10^3 cell/ml): 4
MBC/MIC (P. aeruginosa A9843 [4]; inoculum 5.3 × 10^4 cell/ml): 4
potency against Pseudomonas aeruginosa (in words) (Pseudomonas aeruginosa): only a relatively low potency
Survival/Tested (E. coli Juhl [6]; 1.6 mg/kg sc): 0/5
Survival/Tested (E. coli Juhl [6]; 6.3 mg/kg sc): 1/5
Survival/Tested (E. coli Juhl [6]; 25 mg/kg sc): 5/5
Survival/Tested (E. coli Juhl [6]; 100 mg/kg sc): 5/5
ED50 (E. coli Juhl [6]): 9.5 mg/kg
MIC (P. aeruginosa A9843 [7]): 25 µg/mL
MIC (D. pneumoniae): 0.08 µg/mL (≈ 0.193 µM)
MIC (P. aeruginosa A9843 [8]; [17]): 50 µg/mL (≈ 121 µM)
MIC (P. aeruginosa A9843 [8]; [18]): 50 µg/mL (≈ 121 µM)
MIC (P. aeruginosa A9843 [8]; [19]): > 400 µg/mL
MIC (P. aeruginosa A9843 [8]; inoculum 5.3 × 10^3 cell/ml, Table 5): 25 µg/mL (≈ 60.3 µM)
MIC ratio b/a (P. aeruginosa A9843 [8]; Table 4): 4
MIC ratio c/a (P. aeruginosa A9843 [8]; Table 4): > 8
MIC (S. aureus Smith [9]): 6.3 µg/mL
MIC (P. aeruginosa; [20]): 25 µg/mL (≈ 60.3 µM)
MIC (P. aeruginosa; [21]): > 100 µg/mL
MIC (P. aeruginosa; [22]): 25 µg/mL (≈ 60.3 µM)
MIC (S. pyogenes): 0.31 µg/mL (≈ 0.748 µM)
